This note sets out measurements from ChEMBL document CHEMBL1201861, “Genomics of Drug Sensitity in Cancer screening data, Wellcome Trust Sanger Institute”.

What all share (type): functional, cell-based
One test deals with EB2. In words: cells. To be noted: Homo sapiens.
A further test has as its system ECC4. The test is described as follows: cells. To be noted: Homo sapiens.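 Further: growth inhibition of ECC4 cells, read out with a cell viability assay.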
For the next test, the system named is EHEB. The test is described as follows: cells. To be noted: Homo sapiens.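 Further: growth inhibition of human EHEB cells, read out with a cell viability assay.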
Another test deals with GDM-1. The test is described as follows: cells. To be noted: Homo sapiens.
Another test concerns IM-9. The test is described as follows: SANGER: Inhibition of human IM-9 cell growth in a cell viability assay.
In a further test the test system is JIYOYE. The test is described as follows: cells. To be noted: Homo sapiens.
A further test has as its system K052. The test is described as follows: cells. To be noted: Homo sapiens.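 Further: Read-out from a cell viability assay, IC50 reflecting suppression of K052 cell growth.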
For another test, the system named is LC4-1. The test is described as follows: cells. To be noted: Homo sapiens.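 Further: growth inhibition of LC4-1 cells, read out with a cell viability assay.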
The subject of the next test is NB1. The test is described as follows: cells. To be noted: Homo sapiens.
A further test has as its system NCI-H1963. The test is described as follows: cells. To be noted: Homo sapiens.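 Further: cell growth inhibition of the human line, determined with a cell viability assay.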
The test system of a further test is NCI-H2081. In words: cells. To be noted: Homo sapiens.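 Further: growth inhibition of human NCI-H2081 cells, read out with a cell viability assay.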
The subject of the next test is NCI-H524. The test is described as follows: cells. To be noted: Homo sapiens.
Another test relates to NCI-H748. The test is described as follows: cells. To be noted: Homo sapiens.
In a further test the test system is NCI-H889. The test is described as follows: cells. To be noted: Homo sapiens.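 Further: cell growth inhibition of the cell line, read out with a viability assay.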
The subject of another test is PF-382. In words: cells. To be noted: Homo sapiens.
In the next test the test system is RPMI-6666. The test is described as follows: cells. To be noted: Homo sapiens.
In the next test the test system is SUP-T1. The test is described as follows: cells. To be noted: Homo sapiens.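 Further: growth inhibition of human SUP-T1 cells, read out as cell viability.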
The test system of the next test is BC-3. The test is described as follows: cells. To be noted: Homo sapiens.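 Further: cell viability assay measuring growth inhibition of human BC-3 cells.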
A further test has as its system TGW. The test is described as follows: cells. To be noted: Homo sapiens.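 Further: growth inhibition of human TGW cells, read out with a cell viability assay.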
A further test concerns THP-1. In words: cells. To be noted: Homo sapiens.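 Further: growth inhibition of THP-1 cells, read out via a cell viability assay.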
In a further test the test system is WSU-NHL. The test is described as follows: cells. To be noted: Homo sapiens.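 Further: growth inhibition of human WSU-NHL cells, read out with a cell viability assay.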
The test system of another test is D-542MG. In words: cells. To be noted: Homo sapiens.
For another test, the system named is UACC-812. In words: cells. To be noted: Homo sapiens.

Description for BC-3: SANGER: Inhibition of human BC-3 cell growth in a cell viability assay.
Description for D-542MG: SANGER: Inhibition of human D-542MG cell growth in a cell viability assay.
Description for EB2: SANGER: Inhibition of human EB2 cell growth in a cell viability assay.
Description for ECC4: SANGER: Inhibition of human ECC4 cell growth in a cell viability assay.
Description for EHEB: SANGER: Inhibition of human EHEB cell growth in a cell viability assay.
Description for GDM-1: SANGER: Inhibition of human GDM-1 cell growth in a cell viability assay.
Description for JIYOYE: SANGER: Inhibition of human JiyoyeP-2003 cell growth in a cell viability assay.
Description for K052: SANGER: Inhibition of human K052 cell growth in a cell viability assay.
Description for LC4-1: SANGER: Inhibition of human LC4-1 cell growth in a cell viability assay.
Description for NB1: SANGER: Inhibition of human NB1 cell growth in a cell viability assay.
Description for NCI-H1963: SANGER: Inhibition of human NCI-H1963 cell growth in a cell viability assay.
Description for NCI-H2081: SANGER: Inhibition of human NCI-H2081 cell growth in a cell viability assay.
Description for NCI-H524: SANGER: Inhibition of human NCI-H524 cell growth in a cell viability assay.
Description for NCI-H748: SANGER: Inhibition of human NCI-H748 cell growth in a cell viability assay.
Description for NCI-H889: SANGER: Inhibition of human NCI-H889 cell growth in a cell viability assay.
Description for PF-382: SANGER: Inhibition of human PF-382 cell growth in a cell viability assay.
Description for RPMI-6666: SANGER: Inhibition of human RPMI-6666 cell growth in a cell viability assay.
Description for SUP-T1: SANGER: Inhibition of human SUP-T1 cell growth in a cell viability assay.
Description for TGW: SANGER: Inhibition of human TGW cell growth in a cell viability assay.
Description for THP-1: SANGER: Inhibition of human THP-1 cell growth in a cell viability assay.
Description for UACC-812: SANGER: Inhibition of human UACC-812 cell growth in a cell viability assay.
Description for WSU-NHL: SANGER: Inhibition of human WSU-NHL cell growth in a cell viability assay.

By IC50 is commonly meant the concentration that gives 50% inhibition. Low values mean greater potency in that assay, high ones weaker potency in that assay. Take `COc1cc(C)c(Sc2cnc(NC(=O)c3ccc(CNC(C)C(C)(C)C)cc3)s2)cc1C(=O)N1CCN(C(C)=O)CC1` (centres undefined): the IC50 in the test with EB2, in the test with ECC4, in the test on EHEB, with GDM-1, in the test with IM-9 and in the test with JIYOYE was over 10200 nM each time. The IC50 in the test on K052, with LC4-1, with NB1, with NCI-H1963, in the test on NCI-H2081 and with NCI-H524 was over 10200 nM each time. For the same molecule, the IC50 in the test with NCI-H748 was over 10200 nM; in the test with NCI-H889, over 10200 nM; in the test with PF-382, over 10200 nM; in the test on RPMI-6666 it was over 10200 nM; in the test with SUP-T1, 7480 nM; with BC-3 it was over 10200 nM. Moreover, the IC50 in the test with TGW, in the test on THP-1 and in the test on WSU-NHL was over 10200 nM each time.

With `Cc1ccc(NC(=O)c2cccc(C(C)(C)C#N)c2)cc1Nc1ccc2ncn(C)c(=O)c2c1`, the IC50 in the test on D-542MG is over 4000 nM; in the test on EB2, over 4000 nM; in the test with ECC4, over 4000 nM; in the test with EHEB, over 4000 nM; in the test with GDM-1, 229 nM; with IM-9, over 4000 nM. The IC50 in the test with JIYOYE, with LC4-1, in the test on NB1, with NCI-H1963, in the test with NCI-H2081 and with NCI-H524 was over 4000 nM in each case. Further, the half-maximal inhibitory concentration (IC50) in the test with NCI-H748 was over 4000 nM; with NCI-H889, over 4000 nM; with PF-382, 3050 nM; in the test on RPMI-6666 it was over 4000 nM; with SUP-T1, 1740 nM; in the test with BC-3, over 4000 nM. The IC50 in the test with TGW, in the test with THP-1, in the test on UACC-812 and with WSU-NHL was over 4000 nM each time.

For the molecule `Cc1n[nH]c2ccc(-c3cncc(OC[C@@H](N)Cc4c[nH]c5ccccc45)c3)cc12` [A-443654], the IC50 with EB2 is over 1020 nM; in the test with ECC4 it was over 1020 nM; in the test with EHEB, 402 nM; in the test on GDM-1, over 1020 nM; in the test on IM-9 it was over 1020 nM; with JIYOYE, 188 nM. The IC50 is over 1020 nM in the test on K052; 217 nM in the test on LC4-1; 117 nM with NB1; 392 nM with NCI-H1963; over 1020 nM in the test with NCI-H2081; 860 nM with NCI-H524. Further, the IC50 in the test with NCI-H748 is 508 nM; with NCI-H889, over 1020 nM; with PF-382, 638 nM; in the test on RPMI-6666, 152 nM; with SUP-T1 it was over 1020 nM; with BC-3, 342 nM. Moreover, the values for the 50% inhibitory concentration (IC50) in the test on TGW, with THP-1 and in the test on WSU-NHL were 569 nM, over 1020 nM and over 1020 nM, respectively.

With `Cc1nc(Nc2ncc(C(=O)Nc3c(C)cccc3Cl)s2)cc(N2CCN(CCO)CC2)n1` [DASATINIB], the concentration for half-maximal inhibition (IC50) with EB2, in the test on ECC4, in the test on EHEB, with GDM-1, in the test with IM-9 and in the test on JIYOYE was over 1280 nM each time. In addition, the IC50 in the test on K052, in the test on LC4-1, in the test with NB1, with NCI-H1963, with NCI-H2081 and in the test on NCI-H524 was over 1280 nM each time. In addition, the IC50 with NCI-H748 is over 1280 nM; in the test on NCI-H889, over 1280 nM; in the test on PF-382, 177 nM; in the test with RPMI-6666, over 1280 nM; in the test with SUP-T1 it was over 1280 nM; in the test with BC-3, over 1280 nM. Besides, the IC50 with TGW, in the test with THP-1 and in the test on WSU-NHL was over 1280 nM throughout.

Take `CCn1c(-c2nonc2N)nc2cnc(Oc3cccc(NC(=O)c4ccc(OCCN5CCOCC5)cc4)c3)cc21` [GSK-269962A]: the IC50 in the test with D-542MG, in the test with EB2, in the test with ECC4, in the test on GDM-1, in the test on IM-9 and with JIYOYE was over 2500 nM in each case. Also, the IC50 in the test on K052 was 753 nM; in the test on LC4-1, over 2500 nM; in the test with NB1, over 2500 nM; in the test with NCI-H1963, 1280 nM; with NCI-H2081, over 2500 nM; with NCI-H524, over 2500 nM. Also, the IC50 in the test with NCI-H748, in the test on NCI-H889, in the test with PF-382, with RPMI-6666, in the test with SUP-T1 and in the test with BC-3 was over 2500 nM throughout. Also, the IC50 in the test with TGW, with THP-1, with UACC-812 and in the test on WSU-NHL was over 2500 nM in each case.

Regarding `Cc1[nH]c(/C=C2\C(=O)Nc3ccc(S(=O)(=O)Cc4c(Cl)cccc4Cl)cc32)c(C)c1C(=O)N1CCC[C@@H]1CN1CCCC1` [PHA-665752], the IC50 in the test with EB2, in the test with ECC4, in the test on EHEB, in the test with GDM-1, with IM-9 and in the test with JIYOYE was over 2000 nM throughout. Moreover, the IC50 with K052, with LC4-1, in the test on NB1, in the test with NCI-H1963, in the test with NCI-H2081 and in the test on NCI-H524 was over 2000 nM in each case. Further, the IC50 in the test with NCI-H748, in the test on NCI-H889, in the test with PF-382, in the test with RPMI-6666, in the test with SUP-T1 and with BC-3 was over 2000 nM throughout. For the same molecule, the concentration for half-maximal inhibition (IC50) with TGW, in the test with THP-1, with UACC-812 and in the test on WSU-NHL was over 2000 nM in each case.
